Measurements reported in the supplement of paper PMC10307832.

Columns and labels:
Assay in all cases: relative viability (nuclei count vs DMSO), 5 days (fraction); higher = more cells survive
COR-L23 = system: COR-L23
Outline: (§1)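 The day after seeding in 1536-well plates, lung cancer cell lines were treated by pin tool with a single drug, or with a fixed anchor-drug dose together with five library-drug doses (not always all listed) in √10 steps. After 5 days, a combined fix-and-stain solution (final 0.05% Triton X-100, 1% formaldehyde, 1 ug/ml Hoechst) was added. Nuclei counted on 4× images gave relative viability as treated counts over vehicle counts, reported as the median of duplicate plates.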

EPLC-272H = system: EPLC-272H
Outline: as §1

HARA = system: HARA
Outline: as §1

HCC-15 = system: HCC-15
Outline: as §1

HCC-78 = system: HCC-78
Outline: as §1

LC-2-ad = system: LC-2-ad
Outline: as §1

LU99A = system: LU99A
Outline: as §1

NCI-H1651 = system: NCI-H1651
Outline: as §1

NCI-H1915 = system: NCI-H1915
Outline: as §1

NCI-H1993 = system: NCI-H1993
Outline: as §1

NCI-H2009 = system: NCI-H2009
Outline: as §1

NCI-H2085 = system: NCI-H2085
Outline: as §1

NCI-H2126 = system: NCI-H2126
Outline: as §1

NCI-H2342 = system: NCI-H2342
Outline: as §1

NCI-H2347 = system: NCI-H2347
Outline: as §1

NCI-H358 = system: NCI-H358
Outline: as §1

NCI-H460 = system: NCI-H460
Outline: as §1

NCI-H522 = system: NCI-H522
Outline: as §1

NCI-H650 = system: NCI-H650
Outline: as §1

NCI-H838 = system: NCI-H838
Outline: as §1

PC-14 = system: PC-14
Outline: as §1

SW 1573 = system: SW 1573
Outline: as §1

UMC-11 = system: UMC-11
Outline: as §1

Clc1ccc(Nc2nnc(Cc3ccncc3)c3ccccc23)cc1 [Vatalanib] + Nc1nc2[nH]cc(CCc3ccc(C(=O)N[C@@H](CCC(=O)O)C(=O)O)cc3)c2c(=O)[nH]1 [Pemetrexed] (partner 0.2 µM)
relative viability (COR-L23; first compound 0.04 µM): 0.204
relative viability (COR-L23; first compound 0.1265 µM): 0.194
relative viability (COR-L23; first compound 0.4 µM): 0.212
relative viability (COR-L23; first compound 1.265 µM): 0.201
relative viability (COR-L23; first compound 4 µM): 0.208
relative viability (EPLC-272H; first compound 0.04 µM): 0.349
relative viability (EPLC-272H; first compound 0.1265 µM): 0.334
relative viability (EPLC-272H; first compound 0.4 µM): 0.781
relative viability (EPLC-272H; first compound 1.265 µM): 0.295
relative viability (EPLC-272H; first compound 4 µM): 0.376
relative viability (HARA; first compound 0.04 µM): 0.225
relative viability (HARA; first compound 0.1265 µM): 0.265
relative viability (HARA; first compound 0.4 µM): 0.252
relative viability (HARA; first compound 1.265 µM): 0.232
relative viability (HARA; first compound 4 µM): 0.256
relative viability (HCC-15; first compound 0.04 µM): 0.234
relative viability (HCC-15; first compound 0.1265 µM): 0.218
relative viability (HCC-15; first compound 0.4 µM): 0.225
relative viability (HCC-15; first compound 1.265 µM): 0.235
relative viability (HCC-15; first compound 4 µM): 0.219
relative viability (HCC-78; first compound 0.04 µM): 0.924
relative viability (HCC-78; first compound 0.1265 µM): 0.981
relative viability (HCC-78; first compound 0.4 µM): 0.881
relative viability (HCC-78; first compound 1.265 µM): 0.947
relative viability (HCC-78; first compound 4 µM): 0.906
relative viability (LC-2-ad; first compound 0.04 µM): 0.267
relative viability (LC-2-ad; first compound 0.1265 µM): 0.27
relative viability (LC-2-ad; first compound 0.4 µM): 0.275
relative viability (LC-2-ad; first compound 1.265 µM): 0.267
relative viability (LC-2-ad; first compound 4 µM): 0.288
relative viability (LU99A; first compound 0.04 µM): 0.182
relative viability (LU99A; first compound 0.1265 µM): 0.162
relative viability (LU99A; first compound 0.4 µM): 0.17
relative viability (LU99A; first compound 1.265 µM): 0.189
relative viability (LU99A; first compound 4 µM): 0.162
relative viability (NCI-H1651; first compound 0.04 µM): 0.512
relative viability (NCI-H1651; first compound 0.1265 µM): 0.558
relative viability (NCI-H1651; first compound 0.4 µM): 0.496
relative viability (NCI-H1651; first compound 1.265 µM): 0.543
relative viability (NCI-H1651; first compound 4 µM): 0.526
relative viability (NCI-H1915; first compound 0.04 µM): 0.505
relative viability (NCI-H1915; first compound 0.1265 µM): 0.558
relative viability (NCI-H1915; first compound 0.4 µM): 0.53
relative viability (NCI-H1915; first compound 1.265 µM): 0.477
relative viability (NCI-H1915; first compound 4 µM): 0.498
relative viability (NCI-H1993; first compound 0.04 µM): 0.581
relative viability (NCI-H1993; first compound 0.1265 µM): 0.644
relative viability (NCI-H1993; first compound 0.4 µM): 0.619
relative viability (NCI-H1993; first compound 1.265 µM): 0.501
relative viability (NCI-H1993; first compound 4 µM): 0.619
relative viability (NCI-H2009; first compound 0.04 µM): 0.975
relative viability (NCI-H2009; first compound 0.1265 µM): 0.971
relative viability (NCI-H2009; first compound 0.4 µM): 1.09
relative viability (NCI-H2009; first compound 1.265 µM): 1.01
relative viability (NCI-H2009; first compound 4 µM): 0.974
relative viability (NCI-H2085; first compound 0.04 µM): 0.844
relative viability (NCI-H2085; first compound 0.1265 µM): 0.842
relative viability (NCI-H2085; first compound 0.4 µM): 0.976
relative viability (NCI-H2085; first compound 1.265 µM): 0.892
relative viability (NCI-H2085; first compound 4 µM): 0.821
relative viability (NCI-H2126; first compound 0.04 µM): 0.68
relative viability (NCI-H2126; first compound 0.1265 µM): 0.668
relative viability (NCI-H2126; first compound 0.4 µM): 0.731
relative viability (NCI-H2126; first compound 1.265 µM): 0.592
relative viability (NCI-H2126; first compound 4 µM): 0.602
relative viability (NCI-H2342; first compound 0.04 µM): 0.726
relative viability (NCI-H2342; first compound 0.1265 µM): 0.701
relative viability (NCI-H2342; first compound 0.4 µM): 0.669
relative viability (NCI-H2342; first compound 1.265 µM): 0.769
relative viability (NCI-H2342; first compound 4 µM): 0.773
relative viability (NCI-H2347; first compound 0.04 µM): 0.444
relative viability (NCI-H2347; first compound 0.1265 µM): 0.419
relative viability (NCI-H2347; first compound 0.4 µM): 0.43
relative viability (NCI-H2347; first compound 1.265 µM): 0.487
relative viability (NCI-H2347; first compound 4 µM): 0.41
relative viability (NCI-H358; first compound 0.04 µM): 0.158
relative viability (NCI-H358; first compound 0.1265 µM): 0.149
relative viability (NCI-H358; first compound 0.4 µM): 0.16
relative viability (NCI-H358; first compound 1.265 µM): 0.181
relative viability (NCI-H358; first compound 4 µM): 0.157
relative viability (NCI-H460; first compound 0.04 µM): 0.0651
relative viability (NCI-H460; first compound 0.1265 µM): 0.0511
relative viability (NCI-H460; first compound 0.4 µM): 0.0612
relative viability (NCI-H460; first compound 1.265 µM): 0.0684
relative viability (NCI-H460; first compound 4 µM): 0.0605
relative viability (NCI-H522; first compound 0.04 µM): 0.923
relative viability (NCI-H522; first compound 0.1265 µM): 0.861
relative viability (NCI-H522; first compound 0.4 µM): 1.24
relative viability (NCI-H522; first compound 1.265 µM): 0.86
relative viability (NCI-H522; first compound 4 µM): 0.945
relative viability (NCI-H650; first compound 0.04 µM): 0.931
relative viability (NCI-H650; first compound 0.1265 µM): 0.833
relative viability (NCI-H650; first compound 0.4 µM): 1.03
relative viability (NCI-H650; first compound 1.265 µM): 0.885
relative viability (NCI-H650; first compound 4 µM): 0.996
relative viability (NCI-H838; first compound 0.04 µM): 0.243
relative viability (NCI-H838; first compound 0.1265 µM): 0.226
relative viability (NCI-H838; first compound 0.4 µM): 0.261
relative viability (NCI-H838; first compound 1.265 µM): 0.239
relative viability (NCI-H838; first compound 4 µM): 0.239
relative viability (PC-14; first compound 0.04 µM): 0.135
relative viability (PC-14; first compound 0.1265 µM): 0.125
relative viability (PC-14; first compound 0.4 µM): 0.125
relative viability (PC-14; first compound 1.265 µM): 0.129
relative viability (PC-14; first compound 4 µM): 0.129
relative viability (SW 1573; first compound 0.1265 µM): 0.72
relative viability (SW 1573; first compound 0.4 µM): 0.975
relative viability (SW 1573; first compound 1.265 µM): 0.771
relative viability (SW 1573; first compound 4 µM): 0.794
relative viability (UMC-11; first compound 0.04 µM): 0.849
relative viability (UMC-11; first compound 0.1265 µM): 0.808
relative viability (UMC-11; first compound 0.4 µM): 0.844
relative viability (UMC-11; first compound 1.265 µM): 0.791
relative viability (UMC-11; first compound 4 µM): 0.794
